The values below are quoted from earlier work in US10124030B2, “Skincare preparations” (KARYNG, LLC, priority 2016, dated 2018).

Each structure is given as a SMILES string.

In this series the test system is epidermal SIRT1 protein expression. The note with it: 0.02% vs untreated with UVB; UVB 0.2 J/cm^2.

Regarding `Oc1ccc(C=Cc2cc(O)cc(O)c2)cc1` [Resveratrol], the “modulation of epidermal SIRT1 protein expression” value is on record as −22%.
